In patent publication US20090233997A1, “COMPOSITION FOR PROMOTING SYNTHESIS OF COLLAGEN, AND COMPOSITION FOR EXTERNAL PREPARATION FOR SKIN COMPRISING THE SAME” (LG HOUSEHOLD & HEALTH CARE, LTD., priority 2003, published 2009):
In brackets after ≈: the same amount, converted by molar mass. Several values for one entry are separate records, joined by “and”; a condition that tells them apart may be missing. Equal values may be shown once.

Tests used:
[1] = test system: ear edema of hairless mice; assay: Anti-inflammatory effect, ear swelling method (arachidonic acid); assay type: in vivo; conditions: 1 wt % in ethanol, 20 μl/ear, 2 mg/ear arachidonic acid, test ear vs controlled ear, group of 3
Protocol: The anti-inflammatory effect was evaluated in an ear swelling method by using 6-week-old hairless mice. The left ears of the hairless mice were used as controlled areas to be compared with the test areas, and the right ears of the hairless mice were used as the test areas. Prior to the test, both ears of all the hairless mice were measured three times. Sample solutions were prepared by extracting xanthotoxol, 8-hydroxybergapten, and prangenidin in accordance with […] and dissolving them in ethanol at 1 wt %, individually. Then, 20 μl/ear sample solutions were applied to the right ears of the hairless mice, and 20 μl/ear of ethanol was applied to the left ear thereof. An hour later, 2 mg/ear of arachidonic acid was applied to both ears of the hairless mice. After another hour had passed, the extent of ear edema was measured by using a micrometer, three times. Also, for comparison purposes, the anti-inflammatory effect of indomethacine, which is generally known as an anti-inflammatory agent, was measured with the same method.
The anti-inflammatory effect was a ratio of a thickness of an ear in the test area to the thickness of an ear in the controlled area. It was calculated based on the following Equation 1 and presented as a damage rate.
Damage rate (%)=(thickness of ear in test area/thickness of ear in controlled area)×100 Equation 1

[2] = test system: human fibroblasts; assay: Collagen synthesis effect in human fibroblast culture (PICP EIA Kit); assay type: cell-based; conditions: for Quantity of Synthesized Collagen: cultured one day, 450 nm, n=6; for Increase Rate: relative ratio to collagen generation of control group
Protocol: The collagen synthesis effect of Xanthotoxol was tested by adding Xanthotoxol to a culture broth for human fibroblasts. The quantity of the synthesized collagen was assayed by using a Procollagen Type I C-Peptide Enzyme ImmunoAssay (PICP EIA) Kit.
Xanthotoxol solution aliquots having final concentrations of 0.5 μg/ml, 1 μg/ml, 2 μg/ml, 5 μg/ml, and 10 μg/ml were added to a culture media for human fibroblasts, and the fibroblasts were cultured for one day. The culture broth of each concentration was taken out and the quantity of synthesized collagen was measured with a spectrophotometer at 450 nm by using the PICP EIA Kit.
To compare the effect of collagen synthesis, the human fibroblasts were cultured in a culture medium to which no extra element was added (i.e., a control group) and in a culture medium to which vitamin C having a final concentration of 52.8 μg/ml was added, and the quantity of synthesized collagen was measured with respect to the two samples with the same method as above.
The quantity of generated collagen was measured by using an ultraviolet ray (UV) spectrophotometer, and the increase rate of collagen generation was calculated in a relative ratio with respect to the collagen generation quantity of the control group.
The quantity of synthesized collagen and the increase rate of collagen were measured with the same method as in Experimental Example 1, except that 8-hydroxybergapten was used instead of xanthotoxol.
The quantity of synthesized collagen and the increase rate of collagen were measured with the same method as in Experimental Example 1, except that prangenidin was used instead of xanthotoxol.

[3] = test system: skin wrinkles of hairless mice; assay: Anti-wrinkle effect on hairless mice with light-induced skin wrinkles; assay type: in vivo; conditions: 5 mg/ml in 1,3-butyleneglycol, treated 6 weeks, group of 10
Protocol: The anti-wrinkle effects of xanthotoxol, 8-hydroxybergapten, and prangenidin were tested with respect to 6-week-old hairless mice having skin wrinkles caused by radiating light. Samples were prepared by extracting xanthotoxol, 8-hydroxybergapten, and prangenidin in accordance with Examples 1 through 3 and dissolving them in 1,3-butyleneglycol to thereby prepare 5 mg/ml sample solutions.
The skin wrinkles were caused by radiating light of 2 Minimum Erythema Dose (MED) to hairless mice with a solar simulator, three days a week for 10 weeks. Then, the improvement was assayed based on quality with respect to a control group of hairless mice treated with 1,3-butyleneglycol and test groups of hairless mice treated with the 5 mg/ml samples for 6 weeks.
The extent of wrinkle improvement was determined with the naked bare eye and by photographing the areas treated with the samples. The test groups and the control group were compared and the result was determined in three steps: no improvement; some improvement; and remarkable improvement.

[4] = test system: incision wounds of rats; assay: Wound healing effect, tension stiffness method; assay type: in vivo; conditions: for Tensile Strength: 1 wt % in ethanol, 0.5 ml/cm^2 once every day for 6 days; for Strength Rate: relative to control group (ethanol only) taken as 100%
Protocol: A wound healing effect was tested with respect to 5-week-old male rats by using a tension stiffness method that reflects the quality and quantity of restoration from wounds. The backs of the rats were shaved and wounded with a scalpel, and then the incision was sutured. Sample solutions were prepared by extracting 8-hydroxybergapten and prangenidin in accordance with Examples 2 and 3, and dissolving them in ethanol at 1 wt %, individually. The sample solutions were injected into the incisions at 0.5 ml/cm^2 once every day for 6 days. After 6 days, the rats were sacrificed and the skin around the wounds was removed. Three skin specimens of 1 cm-wide skin flakes crossing the incision line were prepared for each individual and their tensile strength (g/cm) was measured by using a rheometer. The measured tensile strength was used as an index of the strength of the generated collagen fiber. The tensile strength of the control group, to which only ethanol without the sample therein was applied, was taken as 100% and the increase in the tensile strength was measured as a relative strength thereto.

[5] = Antioxidative effect in the DPPH scavenging method; conditions: 30 minutes, 517 nm
Protocol: The antioxidative effects of 8-hydroxybergapten and prangenidin were measured by using 1,1-diphenyl-2-picrylhydrazyl (DPPH). The radical scavenging activity of each sample was calculated by measuring an optical density (O.D.) at 517 nm with a spectrophotometer. Sample solutions were prepared by extracting samples, i.e., 8-hydroxybergapten and prangenidin, in accordance with the methods of Examples 2 and 3 and mixing the samples in concentrations of 3 μg/ml, 5 μg/ml, 10 μg/ml, 12 μg/ml, 50 μg/ml, 80 μg/ml, and 100 μg/ml, individually. Then, experimental solutions were prepared by mixing the 500 μl aliquots of the tested sample solutions with 500 μl of a 1.5×10^−4 M DPPH methanolic solution. The quantity of DPPH remaining in each experimental solution was measured 30 minutes after the preparation of experimental solutions by using the spectrophotometer at 517 nm. In order to subtract the inherent optical densities of the samples from the measurement values of the experimental solutions, the optical densities of the sample solutions of the same concentrations were also measured at 517 nm. A control solution was prepared by mixing 500 μl of a 1.5×10^−4 M DPPH methanolic solution with 500 μl of a methanol solution and using the mixture 30 minutes after the preparation. The radical scavenging activity of each sample was calculated based on the following Equation 2.
To determine the radical scavenging activity of each sample, a coefficient of correlation (R), which is a value in connection with the radical scavenging activity, was obtained, and an IC50, a value that scavenges DPPH by 50%, was calculated. Also, in order to compare the antioxidative effects, the same experiment was carried out with respect to vitamin C.

Row | Structure (SMILES) | Damage Rate [1] | Quantity of Synthesized Collagen ([2]; 0.5 μg/ml) | Increase Rate ([2]; 0.5 μg/ml) | Quantity of Synthesized Collagen ([2]; 1.0 μg/ml) | Increase Rate ([2]; 1.0 μg/ml) | Quantity of Synthesized Collagen ([2]; 2.0 μg/ml) | Increase Rate ([2]; 2.0 μg/ml) | Quantity of Synthesized Collagen ([2]; 5.0 μg/ml) | Increase Rate ([2]; 5.0 μg/ml) | Quantity of Synthesized Collagen ([2]; 10.0 μg/ml) | Increase Rate ([2]; 10.0 μg/ml) | No Improvement (number of mice) [3] | Remarkable Improvement (number of mice) [3] | Some Improvement (number of mice) [3] | Tensile Strength [4] | Strength Rate [4] | IC 50 (scavenges DPPH by 50%) [5] | Quantity of Synthesized Collagen ([2]; 52.8 μg/ml) | Increase Rate ([2]; 52.8 μg/ml)
1 | COc1c2ccoc2c(O)c2oc(=O)ccc12 [8-Hydroxybergapten, 5-benzofuranacrylic acid and 6,7-dihydroxy-4-methoxy-, delta-lactone] | 45% | 1.590 ± 0.102 Abs | 121.4% | 1.876 ± 0.097 Abs | 143.2% | 1.949 ± 0.111 Abs | 148.8% | 1.953 ± 0.132 Abs | 149.1% | 2.008 ± 0.129 Abs | 153.3% | 0 | 6 | 4 | 680 g/cm | 124% | 20.3 µg/mL (≈ 87.4 µM) | – | –
2 | COc1ccc2c(c1)c(CC(=O)O)c(C)n2C(=O)c1ccc(Cl)cc1 [Indomethacine, indomethacine, reference compound] | 51% | – | – | – | – | – | – | – | – | – | – | – | – | – | – | – | – | – | –
3 | CC(C)=CCc1c2ccoc2c(O)c2oc(=O)ccc12 [Prangenidin, 5-Benzofuranacrylic acid, 6,7-dihydroxy-4-(3-methyl-2-butenyl)-delta-lactone] | 40% | 1.537 ± 0.099 Abs | 115.6% | 1.778 ± 0.121 Abs | 133.7% | 1.801 ± 0.135 Abs | 135.4% | 1.813 ± 0.130 Abs | 136.3% | 1.820 ± 0.204 Abs | 136.8% | 1 | 4 | 5 | 663 g/cm | 121% | 21.6 µg/mL (≈ 79.9 µM) | – | –
4 | O=C1O[C@H]([C@@H](O)CO)C(O)=C1O [Vitamin C, vitamin C, reference compound] | – | – | – | – | – | – | – | – | – | – | – | – | – | – | – | – | 8.43 µg/mL (≈ 47.9 µM) | 1.598 ± 0.145 Abs and 1.757 ± 0.121 Abs and 1.739 ± 0.145 Abs | 141.57% and 134.1% and 130.8%
5 | O=c1ccc2cc3ccoc3c(O)c2o1 [Xanthotoxol, 8-hydroxypsoralen] | 42% | 1.449 ± 0.039 Abs | 128.36% | 1.535 ± 0.078 Abs | 135.94% | 1.623 ± 0.084 Abs | 143.75% | 1.651 ± 0.130 Abs | 146.24% | 1.657 ± 0.112 Abs | 146.81% | 2 | 3 | 5 | 642 g/cm | 117% | 24.0 µg/mL (≈ 119 µM) | – | –
